Test results: patent publication US8362000B2, “Azetidinyl diamides as monoacylglycerol lipase inhibitors” (Janssen Pharmaceutica NV, priority 2009, dated 2013)

Target: T1, purified wild type MGL (wt-MGLL 6H-11-313) (Homo sapiens, UniProt Q99685)
T1 sequence (Q99685 1-303): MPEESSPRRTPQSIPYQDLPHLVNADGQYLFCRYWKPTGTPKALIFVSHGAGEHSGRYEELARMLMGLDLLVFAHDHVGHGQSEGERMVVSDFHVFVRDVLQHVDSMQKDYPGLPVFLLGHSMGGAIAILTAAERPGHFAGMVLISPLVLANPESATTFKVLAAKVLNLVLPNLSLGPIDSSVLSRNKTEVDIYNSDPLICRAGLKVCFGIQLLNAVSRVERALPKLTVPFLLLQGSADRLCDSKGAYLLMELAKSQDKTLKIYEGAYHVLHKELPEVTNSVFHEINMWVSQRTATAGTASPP

Compound	IC50 [nM]
Cn1cc(-c2ccccc2)c2ccc(C(=O)N3CC(N4CCN(C(=O)c5ccccc5)CC4)C3)cc21 [Cpd 585]	107
O=C(c1ccccc1)N1CCN(C2CN(C(=O)c3ccc4c(-c5ccccc5)ncnc4c3)C2)CC1 [Cpd 604]	1840
O=C(c1ccccc1)N1CC(N2CCN(C(=O)c3ccc(-c4ccccc4)cc3)CC23CC3)C1 [Cpd 606]	2040
Cc1nc2cc(C(=O)N3CC(N4CCN(C(=O)c5ccccc5)CC4)C3)ccc2n1-c1ccccc1 [Cpd 635]	838
O=C(c1ccc(Oc2cc(C(F)(F)F)ccn2)cc1)N1CC(N2CCN(C(=O)c3nccs3)CC2)C1 [Cpd 652]	7
O=C(c1ccc(Oc2ccccc2Cl)nc1)N1CC(N2CCN(C(=O)c3nccs3)CC2)C1 [Cpd 708]	106
O=C(c1nccs1)N1CCN(C2CN(C(=O)c3nc4cc(Cl)ccc4s3)C2)CC1 [Cpd 728]	231
Cc1cccc(Nc2ccccc2C(=O)N2CC(N3CCN(C(=O)c4nccs4)CC3)C2)c1C [Cpd 744]	335
O=C(c1nccs1)N1CCN(C2CN(C(=O)c3ccccc3Nc3cccc(F)c3)C2)CC1 [Cpd 754]	447
O=C(c1nccs1)N1CC(N2CCN(C(=O)c3nc4cc(Cl)ccc4s3)CC2)C1 [Cpd 764]	636
Cn1c2ccccc2c2cc(C(=O)N3CC(N4CCN(C(=O)c5cscn5)CC4)C3)ccc21 [Cpd 767]	691
O=C(c1nccs1)N1CCN(C2CN(C(=O)c3ccccc3Nc3cccc(C(F)(F)F)c3)C2)CC1 [Cpd 768]	697
O=C(c1nccs1)N1CCN(C2CN(C(=O)c3ccccc3Nc3ccccc3)C2)CC1 [Cpd 781]	1040
O=C(c1ccc2[nH]c3c(c2c1)CCCC3)N1CC(N2CCN(C(=O)c3cscn3)CC2)C1 [Cpd 817]	2700
O=C(c1cscn1)N1CC(N2CCN(C(=O)c3nc4cc(Cl)ccc4s3)CC2)C1 [Cpd 821]	2850
O=C(c1ccc(S(=O)(=O)c2ccccc2)cc1)N1CC(N2CCN(C(=O)c3cscn3)CC2)C1 [Cpd 822]	2860
COc1cccc2c(C)c(C(=O)N3CCN(C4CN(C(=O)c5nccs5)C4)CC3)[nH]c12 [Cpd 846]	6450
Cc1c(-c2ccccc2)oc2c(C(=O)N3CCN(C4CN(C(=O)c5nccs5)C4)CC3c3ccccc3)cccc2c1=O (stereo not drawn) [Cpd 854]	8410
O=C(c1cscn1)N1CCN(C2CN(C(=O)c3nc4cc(Cl)ccc4s3)C2)CC1 [Cpd 855]	8440
Cc1c(C(=O)N2CC(N3CCN(C(=O)c4cscn4)CC3)C2)oc2c(F)cccc12 [Cpd 871]	13300
O=C(c1ccc2c(c1)CCN(Cc1cccc(C(F)(F)F)c1)C2)N1CC(N2CCN(C(=O)c3nccs3)CC2)C1 [Cpd 879]	< 5
O=C(c1ccc2[nH]c(CCc3ccccc3)nc2c1)N1CC(N2CCN(C(=O)c3nccs3)CC2)C1 [Cpd 1000]	111
O=C(c1ccc2nc(Cc3ccccc3)[nH]c2c1)N1CCN(C2CN(C(=O)c3nccs3)C2)CC1 [Cpd 1001]	1400
O=C(c1ccc2nc(CCc3ccccc3)[nH]c2c1)N1CCN(C2CN(C(=O)c3cscn3)C2)CC1 [Cpd 1002]	5290
O=C(c1ccc2[nH]c(Cc3ccccc3)nc2c1)N1CC(N2CCN(C(=O)c3cscn3)CC2)C1 [Cpd 1003]	1610
O=C(c1ccc2[nH]c(Cc3ccccc3)nc2c1)N1CC(N2CCN(C(=O)c3nccs3)CC2)C1 [Cpd 1004]	167
Cn1cc(Cc2cccc(F)c2)c2ccc(C(=O)N3CC(N4CCN(C(=O)c5nccs5)CC4)C3)cc21 [Cpd 1033, 3-(3-Fluorobenzyl)-1-methyl-6-({3-[4-(1,3-thiazol-2-ylcarbonyl)piperazin-1-yl]azetidin-1-yl}carbonyl)-1H-indole]	< 5
Cn1cc(-c2cccc(C(F)(F)F)c2)c2ccc(C(=O)N3CC(N4CCN(C(=O)c5cscn5)CC4)C3)cc21 [Cpd 1084]	9
Cn1cc(-c2cccc(C(F)(F)F)c2)c2ccc(C(=O)N3CC(N4CCN(C(=O)c5nccs5)CC4)C3)cc21 [Cpd 1100]	12
Cc1cc(-c2cccc(C(F)(F)F)c2)ccc1C(=O)N1CCN(C2CN(C(=O)c3cscn3)C2)CC1 [Cpd 1212]	204
